Data taken from ChEMBL document CHEMBL1201862, “PubChem BioAssay data set” (2004).
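Values below derive from 48-hour exposures of cells grown in 96-well plates, with endpoints linearly interpolated between the two concentrations bracketing the appropriate inhibition level. At the GI50, growth is halved.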 Activity calls are given as the source filed them. Rule as the data show it: active = GI50 up to about 1.1 µM and inactive = higher.

Key:
Assay in all cases: NCI-60 cell line screen, 48 h
SK-MEL-2 = test system: SK-MEL-2
NCI-H23 = test system: NCI-H23
KM12 = test system: KM12
SN12C = test system: SN12C
LOX IMVI = test system: LOX IMVI
HCT-15 = test system: HCT-15
OVCAR-4 = test system: OVCAR-4
NCI-H522 = test system: NCI-H522
CCRF-CEM = test system: CCRF-CEM
M14 = test system: M14
HOP-62 = test system: HOP-62
SNB-19 = test system: SNB-19
786-0 = test system: 786-0
A549 = test system: A549
UACC-257 = test system: UACC-257
RPMI-8226 = test system: RPMI-8226

SMILES | GI50 (SK-MEL-2) | GI50 (NCI-H23) | GI50 (KM12) | GI50 (SN12C) | GI50 (LOX IMVI) | GI50 (HCT-15) [µM] | GI50 (OVCAR-4) | GI50 (NCI-H522) | GI50 (CCRF-CEM) | GI50 (M14) | GI50 (HOP-62) | GI50 (SNB-19) | GI50 (786-0) | GI50 (A549) | GI50 (UACC-257) | GI50 (RPMI-8226)
CN(C)CCOc1cccc2c1C(=O)c1ccccc1C2=O | 14.2 µM (inactive) | 11.8 µM (inactive) | 10.8 µM (inactive) | 9.06 µM (inactive) | 5.75 µM (inactive) | 12.2 | 6.14 µM (inactive) | 6.52 µM (inactive) | 11.4 µM (inactive) | 13.5 µM (inactive) | 13.6 µM (inactive) | 18.2 µM (inactive) | 17.6 µM (inactive) | 13.7 µM (inactive) | 13.1 µM (inactive) | –
COC(=O)C1Cc2c([nH]c3ccccc23)C(c2ccccc2O)N1 (stereo not given) | > 100 µM (inactive) | 52 µM (inactive) | 60.3 µM (inactive) | 55.2 µM (inactive) | 60.8 µM (inactive) | 30.5 | 53.5 µM (inactive) | 32.4 µM (inactive) | 45.4 µM (inactive) | 93.8 µM (inactive) | – | > 100 µM (inactive) | 69.8 µM (inactive) | 43 µM (inactive) | 84.1 µM (inactive) | –
CSc1ccc(C2OC(=O)c3ccccc32)c2ccccc12 (stereo not given) | > 100 µM (inactive) | – | 78 µM (inactive) | > 100 µM (inactive) | 88.3 µM (inactive) | 97.7 | 70.5 µM (inactive) | 51.8 µM (inactive) | 54.8 µM (inactive) | > 100 µM (inactive) | > 100 µM (inactive) | > 100 µM (inactive) | > 100 µM (inactive) | 81.3 µM (inactive) | > 100 µM (inactive) | 47.2 µM (inactive)
CC(C)(C)c1cc(C(=O)O)c2c(c1)C(=O)OC2(c1ccccc1)c1ccccc1C(=O)O (stereo not given) | > 100 µM (inactive) | > 100 µM (inactive) | > 100 µM (inactive) | > 100 µM (inactive) | > 100 µM (inactive) | > 100 | 78.3 µM (inactive) | 0.206 µM (active) | > 100 µM (inactive) | > 100 µM (inactive) | > 100 µM (inactive) | > 100 µM (inactive) | > 100 µM (inactive) | > 100 µM (inactive) | > 100 µM (inactive) | –
O=C1c2ccccc2N2OC3C4CCC(C4)C3C12c1ccccc1 (stereo not given) | – | 94.6 µM (inactive) | – | 86.9 µM (inactive) | – | 45.8 | > 100 µM (inactive) | 36 µM (inactive) | 44.2 µM (inactive) | 92.5 µM (inactive) | > 100 µM (inactive) | > 100 µM (inactive) | > 100 µM (inactive) | 55.5 µM (inactive) | 70 µM (inactive) | 37.1 µM (inactive)
CCC(=O)OC[n+]1ccc2c(C)c3[nH]c4ccccc4c3c(C)c2c1 | 1.03 µM (active) | 0.675 µM (active) | 0.483 µM (active) | 0.401 µM (active) | 0.337 µM (active) | – | 0.505 µM (active) | – | 0.444 µM (active) | 1.08 µM (active) | – | 1.6 µM (inactive) | 0.767 µM (active) | 0.272 µM (active) | 1.37 µM (inactive) | 0.284 µM (active)
O=C(/C=C/c1ccccc1Cl)c1ccccc1Cl | – | 21.2 µM (inactive) | 15.5 µM (inactive) | 20.6 µM (inactive) | – | 14.8 | 20.7 µM (inactive) | 19 µM (inactive) | 20.4 µM (inactive) | 22.3 µM (inactive) | 47.8 µM (inactive) | 15.7 µM (inactive) | 15.2 µM (inactive) | 30 µM (inactive) | 19.8 µM (inactive) | 16 µM (inactive)
COC(=O)C(C(=O)C(=O)Nc1cccc(C)c1)C1=NC(N)SS1 (stereo not given) | > 100 µM (inactive) | > 100 µM (inactive) | > 100 µM (inactive) | > 100 µM (inactive) | > 100 µM (inactive) | > 100 | > 100 µM (inactive) | > 100 µM (inactive) | > 100 µM (inactive) | > 100 µM (inactive) | > 100 µM (inactive) | > 100 µM (inactive) | > 100 µM (inactive) | > 100 µM (inactive) | > 100 µM (inactive) | > 100 µM (inactive)
c1ccc(C2=NN3CN(N2)c2ccccc2OCCCOc2ccccc23)cc1 | > 100 µM (inactive) | > 100 µM (inactive) | > 100 µM (inactive) | > 100 µM (inactive) | > 100 µM (inactive) | > 100 | 77.6 µM (inactive) | 34.7 µM (inactive) | > 100 µM (inactive) | > 100 µM (inactive) | > 100 µM (inactive) | > 100 µM (inactive) | > 100 µM (inactive) | > 100 µM (inactive) | – | 19.1 µM (inactive)
CNC(=S)NNC(=O)c1c(C)nc2sccn12 | > 100 µM (inactive) | > 100 µM (inactive) | > 100 µM (inactive) | > 100 µM (inactive) | > 100 µM (inactive) | > 100 | – | > 100 µM (inactive) | > 100 µM (inactive) | – | > 100 µM (inactive) | 99.5 µM (inactive) | > 100 µM (inactive) | > 100 µM (inactive) | > 100 µM (inactive) | –
N#CC1C(C#N)C2(c3ccccc3)C(c3ccccc3)=NN(c3ccccc3)CC12 (stereo not given) | > 100 µM (inactive) | – | > 100 µM (inactive) | > 100 µM (inactive) | > 100 µM (inactive) | > 100 | 95.3 µM (inactive) | – | > 100 µM (inactive) | > 100 µM (inactive) | – | > 100 µM (inactive) | > 100 µM (inactive) | > 100 µM (inactive) | > 100 µM (inactive) | > 100 µM (inactive)
C=CCNC1=NC(=O)C(CC(=O)Nc2ccc([N+](=O)[O-])cc2[N+](=O)[O-])S1 (stereo not given) | > 100 µM (inactive) | > 100 µM (inactive) | > 100 µM (inactive) | > 100 µM (inactive) | – | > 100 | 95.7 µM (inactive) | > 100 µM (inactive) | > 100 µM (inactive) | > 100 µM (inactive) | > 100 µM (inactive) | > 100 µM (inactive) | > 100 µM (inactive) | > 100 µM (inactive) | > 100 µM (inactive) | –
O=C(O)c1ccc(C2=Cc3cc(Cl)ccc3OC2)cc1 | > 100 µM (inactive) | > 100 µM (inactive) | > 100 µM (inactive) | > 100 µM (inactive) | > 100 µM (inactive) | > 100 | – | > 100 µM (inactive) | > 100 µM (inactive) | > 100 µM (inactive) | > 100 µM (inactive) | > 100 µM (inactive) | > 100 µM (inactive) | > 100 µM (inactive) | > 100 µM (inactive) | > 100 µM (inactive)
O=C1C2C=CC(C2)C(c2ccc(O)cc2)N1O (stereo not given) | > 100 µM (inactive) | > 100 µM (inactive) | > 100 µM (inactive) | > 100 µM (inactive) | – | – | > 100 µM (inactive) | > 100 µM (inactive) | > 100 µM (inactive) | > 100 µM (inactive) | > 100 µM (inactive) | > 100 µM (inactive) | > 100 µM (inactive) | > 100 µM (inactive) | > 100 µM (inactive) | > 100 µM (inactive)
Cc1nc2ccccc2c(=O)n1/N=C(\N=N\c1ccccc1Cl)c1ccccc1 | – | 44.5 µM (inactive) | – | – | 24.8 µM (inactive) | 22.2 | – | 19.1 µM (inactive) | 17.3 µM (inactive) | 18.1 µM (inactive) | 19.1 µM (inactive) | 74.1 µM (inactive) | 19 µM (inactive) | 48.6 µM (inactive) | – | 17 µM (inactive)
COc1ccc(CNc2cnc3cc(N)ccc3n2)cc1 | > 100 µM (inactive) | > 100 µM (inactive) | > 100 µM (inactive) | > 100 µM (inactive) | > 100 µM (inactive) | > 100 | > 100 µM (inactive) | > 100 µM (inactive) | 30 µM (inactive) | > 100 µM (inactive) | > 100 µM (inactive) | 69 µM (inactive) | > 100 µM (inactive) | > 100 µM (inactive) | – | 42.8 µM (inactive)
CC1(C)S[C@H](c2ccccc2C(=O)O)N[C@@H]1CC(=O)O | – | > 100 µM (inactive) | > 100 µM (inactive) | > 100 µM (inactive) | > 100 µM (inactive) | > 100 | > 100 µM (inactive) | > 100 µM (inactive) | > 100 µM (inactive) | > 100 µM (inactive) | > 100 µM (inactive) | > 100 µM (inactive) | > 100 µM (inactive) | > 100 µM (inactive) | > 100 µM (inactive) | > 100 µM (inactive)
Cn1cnc([N+](=O)[O-])c1Sc1nc2ccccc2s1 | – | 10.9 µM (inactive) | 15.1 µM (inactive) | 4.33 µM (inactive) | 15.3 µM (inactive) | 2.99 | 3.01 µM (inactive) | – | – | 15.2 µM (inactive) | 25.2 µM (inactive) | 14.5 µM (inactive) | 11.8 µM (inactive) | 10.2 µM (inactive) | – | 12.5 µM (inactive)
O=C(/C=C1\Nc2ccccc2C(=O)N1c1ccc(Cl)cc1)c1ccncc1 | > 100 µM (inactive) | > 100 µM (inactive) | > 100 µM (inactive) | > 100 µM (inactive) | – | > 100 | > 100 µM (inactive) | > 100 µM (inactive) | > 100 µM (inactive) | > 100 µM (inactive) | > 100 µM (inactive) | > 100 µM (inactive) | 71.6 µM (inactive) | > 100 µM (inactive) | > 100 µM (inactive) | > 100 µM (inactive)
CC[C@@]12N=C(N(C)C)C[C@]1(O)ON=C2C | > 100 µM (inactive) | > 100 µM (inactive) | > 100 µM (inactive) | > 100 µM (inactive) | – | > 100 | > 100 µM (inactive) | > 100 µM (inactive) | > 100 µM (inactive) | > 100 µM (inactive) | – | > 100 µM (inactive) | > 100 µM (inactive) | > 100 µM (inactive) | – | > 100 µM (inactive)
